In US8324245B2, “Quinoline derivative and quinazoline derivative inhibiting self-phosphorylation of hepatocytus proliferator receptor, and medicinal composition containing the same” (Kyowa Hakko Kirin Co., Ltd., priority 2001, dated 2012) one finds IC50 data, which are given here for 33 compounds.

A word on the IC50: it is the point on the concentration scale where inhibition reaches its midpoint. Higher therefore signals lower potency.

This assay concerns the target T1, met (HGF receptor) in human gastric cancer cells MKN45 (Homo sapiens, UniProt P08581).
T1 construct: endogenous in cells; host or cells: MKN45 human gastric cancer cells
Description: Inhibitory activity against met-autophosphorylation using ELISA method (2), MKN45 cells, HGF-independent. It is filed as cell-based. The procedure:
Cells were cultured with RPMI medium containing 0.1% fetal calf serum in 96-well flat-bottom plate in an amount of 3×10^4 per well, and were incubated at 37° C. overnight. The medium was then replaced by a fresh RPMI medium containing 0.1% fetal calf serum. A solution of the test compound in dimethyl sulfoxide was added to each well, and the incuvation was continued at 37° C. for additional one hr. The medium was removed, the cells were washed with phosphate buffered saline (pH 7.4), and 50 μl of a lysis buffer (20 mM HEPES (pH 7.4), 150 mM NaCl, 0.2% Triton X-100, 10% glycerol, 5 mM sodium orthovanadylate, 5 mM disodium ethylenediaminetetraacetate, and 2 mM Na4P2O7) was then added thereto. The mixture was shaken at 4° C. for 2 hr to prepare a cell extract.
Separately, phosphate buffered saline (50 μl, pH 7.4) containing 5 μg/ml of anti-phospho-tyrosine antibody (PY20; purchased from Transduction Laboratories) was added to a microplate for ELISA (Maxisorp; purchased from NUNC), followed by gentle agitation at 4° C. overnight to coat the surface of the wells with the antibody. After washing of the plate, 300 μl of a blocking solution was added, followed by gentle agitation at room temperature for 2 hr to perform blocking. After washing, the whole quantity of the cell extract was transferred to the wells, and the plate was then allowed to stand at 4° C. overnight. After washing, an anti-HGF receptor antibody (h-Met (C-12), purchased from Santa Cruz Biotechnology) was allowed to react at room temperature for one hr, and, after washing, a peroxidase-labeled anti-rabbit Ig antibody (purchased from Amersham) was allowed to react at room temperature for one hr. After washing, a chromophoric substrate for peroxidase (purchased from Sumitomo Bakelite Co., Ltd.) was added thereto to initiate a reaction. After a suitable level of color development, a reaction termination solution was added to stop the reaction, and the absorbance at 450 nm was measured with a microplate reader.

T1 sequence (P08581 25-1390): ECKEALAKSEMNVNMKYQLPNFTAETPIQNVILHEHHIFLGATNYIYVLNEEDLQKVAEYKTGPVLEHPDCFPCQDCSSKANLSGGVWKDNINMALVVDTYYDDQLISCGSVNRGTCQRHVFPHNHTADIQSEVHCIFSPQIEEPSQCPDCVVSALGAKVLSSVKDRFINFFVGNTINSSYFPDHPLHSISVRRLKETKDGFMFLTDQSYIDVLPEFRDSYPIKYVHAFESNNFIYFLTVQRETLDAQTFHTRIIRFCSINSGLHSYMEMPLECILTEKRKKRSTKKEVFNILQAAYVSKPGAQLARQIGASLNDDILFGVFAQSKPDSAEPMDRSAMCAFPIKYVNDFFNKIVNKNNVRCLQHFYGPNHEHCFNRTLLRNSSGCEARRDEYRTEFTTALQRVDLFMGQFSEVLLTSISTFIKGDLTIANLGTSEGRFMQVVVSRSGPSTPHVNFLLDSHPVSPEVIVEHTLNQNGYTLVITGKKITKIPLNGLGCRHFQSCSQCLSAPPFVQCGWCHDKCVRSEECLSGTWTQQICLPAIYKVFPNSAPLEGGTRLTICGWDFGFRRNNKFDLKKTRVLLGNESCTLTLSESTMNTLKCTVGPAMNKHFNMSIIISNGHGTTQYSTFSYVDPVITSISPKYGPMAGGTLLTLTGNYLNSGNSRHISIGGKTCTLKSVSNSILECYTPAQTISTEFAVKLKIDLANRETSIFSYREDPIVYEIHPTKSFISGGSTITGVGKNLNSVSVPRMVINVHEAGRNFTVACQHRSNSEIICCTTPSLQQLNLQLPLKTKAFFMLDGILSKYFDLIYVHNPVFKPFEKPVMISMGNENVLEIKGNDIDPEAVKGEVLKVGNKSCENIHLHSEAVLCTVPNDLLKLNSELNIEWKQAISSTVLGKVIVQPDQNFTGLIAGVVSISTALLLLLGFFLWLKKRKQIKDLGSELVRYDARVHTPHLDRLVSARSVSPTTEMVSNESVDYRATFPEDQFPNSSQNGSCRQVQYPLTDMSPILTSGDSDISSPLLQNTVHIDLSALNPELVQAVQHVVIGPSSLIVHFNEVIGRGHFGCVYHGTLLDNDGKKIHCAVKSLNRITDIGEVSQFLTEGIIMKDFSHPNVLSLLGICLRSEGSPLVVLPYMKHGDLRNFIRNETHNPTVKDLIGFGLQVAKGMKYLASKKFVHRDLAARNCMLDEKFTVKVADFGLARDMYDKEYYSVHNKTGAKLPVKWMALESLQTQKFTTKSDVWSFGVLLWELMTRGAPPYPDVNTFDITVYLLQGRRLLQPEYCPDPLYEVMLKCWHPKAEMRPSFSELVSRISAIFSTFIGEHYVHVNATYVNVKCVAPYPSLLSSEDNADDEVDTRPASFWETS

In turn, `COc1cc2nccc(Oc3c(Cl)cc(NC(=S)NC(=O)Cc4ccccc4)cc3Cl)c2cc1OC` [Example 70, 1-[3,5-dichloro-4-(6,7-dimethoxyquinolin-4-yloxy)phenyl]-3-phenylacetylthiourea] gave an IC50 of 0.0153 µM. In other words, the double-digit nanomolar range.

The compound `COc1cc2nccc(Oc3ccc(NC(=S)NC(=O)Cc4ccc(F)cc4)cc3)c2cc1OC` [Example 71, 1-[4-(6,7-dimethoxyquinolin-4-yloxy)phenyl]-3-[2-(4-fluorophenyl)acetyl]thiourea] registered an IC50 of 0.0299 µM. Compared with the last compound, the IC50 is about 2-fold higher.

In turn, `COc1cc2nccc(Oc3ccc(NC(=S)NC(=O)Cc4ccc(F)cc4)c(F)c3)c2cc1OC` [Example 72, 1-[4-(6,7-dimethoxyquinolin-4-yloxy)-2-fluoro-phenyl]-3-[2-(4-fluorophenyl)acetyl]thiourea] gave an IC50 of 0.0279 µM.

With `COc1cc2nccc(Oc3ccc(NC(=S)NC(=O)Cc4ccc(F)cc4)cc3Cl)c2cc1OC` [Example 73, 1-[3-chloro-4-(6,7-dimethoxyquinolin-4-yloxy)-phenyl]-3-[2-(4-fluorophenyl)acetyl]thiourea], it took 0.0281 µM to reach half-maximal inhibition (IC50).

Take `COc1cc2nccc(Oc3ccc(NC(=S)NC(=O)Cc4cccc(F)c4)c(F)c3)c2cc1OC` [Example 74, 1-[4-(6,7-dimethoxyquinolin-4-yloxy)-2-fluoro-phenyl]-3-[2-(3-fluorophenyl)acetyl]thiourea]: the IC50 is 0.182 µM. This IC50 lies about 6.5-fold higher than the previous one.

For the compound `COc1cc2nccc(Oc3ccc(NC(=S)NC(=O)Cc4cccc(F)c4)cc3F)c2cc1OC` [Example 75, 1-[4-(6,7-dimethoxyquinolin-4-yloxy)-3-fluoro-phenyl]-3-[2-(3-fluorophenyl)acetyl]thiourea], the IC50 came out at 0.0336 µM.

On to `COc1cc2nccc(Oc3ccc(NC(=S)NC(=O)Cc4cccc(F)c4)cc3Cl)c2cc1OC` [Example 76, 1-[3-chloro-4-(6,7-dimethoxyquinolin-4-yloxy)-phenyl]-3-[2-(3-fluorophenyl)acetyl]thiourea], for which the IC50 stood at 0.0517 µM. Against the preceding compound, the IC50 is about 1.5-fold higher.

Turning to `COc1cc2nccc(Oc3ccc(NC(=S)NC(=O)Cc4cccc(C)c4)cc3)c2cc1OC` [Example 77, 1-[4-(6,7-dimethoxyquinolin-4-yloxy)phenyl]-3-(2-m-tolylacetyl)thiourea], the midpoint of inhibition, the IC50, lay at 0.178 µM.

`COc1cc2nccc(Oc3ccc(NC(=S)NC(=O)Cc4cccc(C)c4)cc3Cl)c2cc1OC` [Example 78, 1-[3-chloro-4-(6,7-dimethoxyquinolin-4-yloxy)-phenyl]-3-(2-m-tolylacetyl)thiourea] showed an IC50 of 0.0663 µM.

In turn, `COc1cc2nccc(Oc3ccc(NC(=S)NC(=O)Cc4ccccc4C)cc3)c2cc1OC` [Example 79, 1-[4-(6,7-dimethoxyquinolin-4-yloxy)phenyl]-3-(2-o-tolylacetyl)thiourea] returned an IC50 of 0.145 µM. Against the preceding compound, the IC50 is about 2.2-fold higher.

Compound `COc1cc2nccc(Oc3ccc(NC(=S)NC(=O)Cc4ccccc4F)c(F)c3)c2cc1OC` [Example 80, 1-[4-(6,7-dimethoxyquinolin-4-yloxy)-2-fluoro-phenyl]-3-[2-(2-fluorophenyl)acetyl]thiourea] returned an IC50 of 0.0302 µM.

On to `COc1cc2nccc(Oc3ccc(NC(=S)NC(=O)Cc4ccccc4F)cc3F)c2cc1OC` [Example 81, 1-[4-(6,7-dimethoxyquinolin-4-yloxy)-3-fluoro-phenyl]-3-[2-(2-fluorophenyl)acetyl]thiourea], for which the IC50 came out at 0.0277 µM.

Compound `COc1cc2nccc(Oc3ccc(NC(=S)NC(=O)Cc4ccc(C)cc4)cc3Cl)c2cc1OC` [Example 82, 1-[3-chloro-4-(6,7-dimethoxyquinolin-4-yloxy)-phenyl]-3-(2-p-tolylacetyl)thiourea] registered an IC50 of 0.0743 µM.

`COc1ccccc1CC(=O)NC(=S)Nc1ccc(Oc2ccnc3cc(OC)c(OC)cc23)c(F)c1` [Example 83, 1-[4-(6,7-dimethoxyquinolin-4-yloxy)-3-fluoro-phenyl]-3-[2-(2-methoxyphenyl)acetyl]thiourea] displayed an IC50 of 0.0391 µM.

In the case of `COc1cc2nccc(Oc3ccc(NC(=S)NC(=O)Cc4ccccc4C)cc3F)c2cc1OC` [Example 84, 1-[4-(6,7-dimethoxyquinolin-4-yloxy)-3-fluorophenyl]-3-(2-o-tolylacetyl)thiourea], half-maximal inhibition (IC50) was put at 0.04 µM.

Regarding `COc1cc2nccc(Oc3ccc(NC(=S)NC(=O)Cc4ccsc4)cc3F)c2cc1OC` [Example 85, 1-[4-(6,7-dimethoxyquinolin-4-yloxy)-3-fluoro-phenyl]-3-(2-thiophen-3-ylacetyl)thiourea], inhibition was half-maximal at 0.0488 µM (IC50).

The compound `COc1cc(Oc2ccnc3cc(OC)c(OC)cc23)ccc1NC(=S)NC(=O)Cc1ccsc1` [Example 86, 1-[4-(6,7-dimethoxyquinolin-4-yloxy)-2-methoxyphenyl]-3-(2-thiophen-3-ylacetyl)thiourea] registered an IC50 of 0.0235 µM.

The compound `COc1cc2nccc(Oc3ccc(NC(=S)NC(=O)Cc4ccccc4Cl)cc3F)c2cc1OC` [Example 87, 1-[2-(2-chlorophenyl)acetyl]-3-[4-(6,7-dimethoxyquinolin-4-yloxy)-3-fluorophenyl]thiourea] returned an IC50 of 0.198 µM.

`COc1cc2nccc(Oc3ccc(NC(=S)NC(=O)CC4C5CCC4CC5)cc3)c2cc1OC` (stereo not drawn) [Example 88, 1-(2-bicyclo[2.2.1]hepto-7-ylacetyl)-3-[4-(6,7-dimethoxyquinolin-4-yloxy)phenyl]thiourea] displayed an IC50 of 0.0492 µM.

Turning to `COc1cc2nccc(Oc3ccc(NC(=S)NC(=O)CC4C5CCC4CC5)c(F)c3)c2cc1OC` (stereo not drawn) [Example 89], the IC50 came to 0.0526 µM.

`COc1cc2nccc(Oc3ccc(NC(=S)NC(=O)CC4C5CCC4CC5)cc3F)c2cc1OC` (stereo not drawn) [Example 90, 1-(2-bicyclo[2.2.1]hepto-7-ylacetyl)-3-[4-(6,7-dimethoxyquinolin-4-yloxy)-3-fluorophenyl]thiourea] displayed an IC50 of 0.0281 µM.

With `COc1cc2nccc(Oc3ccc(NC(=S)NC(=O)CC4C5CCC4CC5)cc3Cl)c2cc1OC` (stereo not drawn) [Example 91, 1-(2-bicyclo[2.2.1]hepto-7-ylacetyl)-3-[3-chloro-4-(6,7-dimethoxyquinolin-4-yloxy)phenyl]thiourea], the half-inhibitory concentration (IC50) was 0.0401 µM. This IC50 and that of the compound before are within 1.5-fold of each other.

With `COc1cc2nccc(Oc3ccc(NC(=S)NC(=O)Cc4ccc(C)cc4)c(F)c3)c2cc1OC` [Example 92, 1-[4-(6,7-dimethoxyquinolin-4-yloxy)-2-fluoro-phenyl]-3-(2-p-tolylacetyl)thiourea], 0.148 µM corresponded to half-maximal inhibition (IC50).

For `COc1cc2nccc(Oc3ccc(NC(=S)NC(=O)Cc4ccc(F)cc4F)c(F)c3)c2cc1OC` [Example 93, 1-[2-(2,4-difluorophenyl)acetyl]-3-[4-(6,7-dimethoxyquinolin-4-yloxy)-2-fluorophenyl]thiourea], the IC50 was 0.121 µM.

As for `COc1cc2nccc(Oc3ccc(NC(=S)NC(=O)Cc4ccc(F)cc4F)cc3F)c2cc1OC` [Example 94, 1-[2-(2,4-difluorophenyl)acetyl]-3-[4-(6,7-dimethoxyquinolin-4-yloxy)-3-fluorophenyl]thiourea], the IC50 was determined as 0.0307 µM.

In turn, `COc1cc2nccc(Oc3ccc(NC(=S)NC(=O)Cc4c(F)cccc4F)cc3F)c2cc1OC` [Example 95, 1-[2-(2,6-difluorophenyl)acetyl]-3-[4-(6,7-dimethoxyquinolin-4-yloxy)-3-fluorophenyl]thiourea] came in with an IC50 of 0.0413 µM.

Regarding `COc1cc2nccc(Oc3ccc(NC(=S)NC(=O)Cc4cc(F)ccc4F)c(F)c3)c2cc1OC` [Example 96, 1-[2-(2,5-difluorophenyl)acetyl]-3-[4-(6,7-dimethoxyquinolin-4-yloxy)-2-fluorophenyl]thiourea], the IC50 was found to be 0.171 µM.

As to `COc1cc2nccc(Oc3ccc(NC(=S)NC(=O)Cc4c(Cl)cccc4Cl)cc3F)c2cc1OC` [Example 97, 1-[2-(2,6-dichlorophenyl)acetyl]-3-[4-(6,7-dimethoxyquinolin-4-yloxy)-3-fluorophenyl]thiourea], the IC50 was 0.0376 µM.

As to `COc1cc2nccc(Oc3ccc(NC(=O)CC(=O)Nc4ccc(F)cc4F)c(F)c3)c2cc1OC` [Example 98, N-(2,4-difluorophenyl)-N′-[4-(6,7-dimethoxy-quinolin-4-yloxy)-2-fluorophenyl]malonamide], half-maximal inhibition (IC50) was put at 0.0278 µM.

The compound `COc1cc2nccc(Oc3ccc(NC(=O)CC(=O)Nc4ccc(F)cc4F)cc3F)c2cc1OC` [Example 99, N-(2,4-difluorophenyl)-N′-[4-(6,7-dimethoxy-quinolin-4-yloxy)-3-fluorophenyl]malonamide] displayed an IC50 of 0.0256 µM. The IC50 values of the last two compounds are within 1.5-fold of each other.

`COc1cc2nccc(Oc3ccc(NC(=O)CC(=O)Nc4ccccc4)cc3)c2cc1OC` [Example 100, N-[4-(6,7-dimethoxyquinolin-4-yloxy)phenyl]-N′-phenylmalonamide]: it took 0.0308 µM to reach half-maximal inhibition (IC50).

The compound `COc1cc2nccc(Oc3ccc(NC(=O)CC(=O)NC4CCCCCC4)cc3)c2cc1OC` [Example 101, N-cycloheptyl-N′-[4-(6,7-dimethoxyquinolin-4-yloxy)phenyl]malonamide] showed an IC50 of 0.0444 µM.

In turn, `COc1cc2nccc(Oc3ccc(NC(=O)CC(=O)Nc4ccc(F)cc4F)cc3)c2cc1OC` [Example 102, N-(2,4-difluorophenyl)-N′-[4-(6,7-dimethoxy-quinolin-4-yloxy)phenyl]malonamide] showed an IC50 of 0.0918 µM.
